Source: PMC6100347, “Simultaneous Determination of Decursin, Decursinol Angelate, Nodakenin, and Decursinol of Angelica gigas Nakai in Human Plasma by UHPLC-MS/MS: Application to Pharmacokinetic Study” (Molecules : A Journal of Synthetic Chemistry and Natural …, 2018)

Experiments:
[1] = Published PK study of AGN-based dietary supplement Cogni Q after oral administration in humans; type: in vivo, human; conditions: Cogni Q (ref 23) vs 4.6 g AGN root extract powder
Protocol: PK study of the four coumarins has been reported in several studies. However, presented PK parameters are inconsistent with each other. Of these studies, only one paper has reported a PK study for D, DA, and DOH after oral administration in humans (male, n = 10) for AGN-based dietary supplement Cogni Q (119 mg D and 77 mg DA from four vegicaps). […] Such discrepancies in PK parameters between that study and the current study might be due to differences in dosage and the influence of excipients from different formulations. PKs of nodakenin in humans have not been reported previously.

[2] = Stability in human plasma under various storage conditions (QC samples); type: in vitro ADME; conditions: in % (unit assumed); for Stability, Processed Sample (10 °C in Auto Sampler for 24 h): extracted human plasma sample; for Stability, Processed Sample (10 °C in Auto Sampler for 24 h) / Stability, Long-Term (−80 °C for 30 Days) / Stability, Bench-Top (8 h at Room Temperature) / Stability, Freeze-Thaw (3 Cycles): mean ± SD, n = 5; for Stability, Long-Term (−80 °C for 30 Days) / Stability, Bench-Top (8 h at Room Temperature) / Stability, Freeze-Thaw (3 Cycles) / Stability mean values (range over all storage conditions and concentrations): human plasma; for Stability, Bench-Top (8 h at Room Temperature): measured vs initial value; for Stability, Freeze-Thaw (3 Cycles): −80 °C and room temperature; for Stability mean values (range over all storage conditions and concentrations): bench-top, processed sample, freeze-thaw, long-term, low and high QC
Protocol: Bench-top stability test was conducted by using unextracted QC samples at room temperature for 8 h. Processed sample stability test was carried out by analyzing extracted samples in an auto sampler at 10 °C for 24 h. Freeze–thaw stability was estimated after three frozen and thawing cycles at −80 °C and room temperature on consecutive days. Long-term stability was examined after storing samples at −80 °C for a month. Stability of each coumarin was estimated by comparing the initial value with measured value after the examination (n = 5). The sample was considered stable if each value was less than 15% and all value of data expressed as mean ± standard deviation (mean ± SD).

[3] = Pharmacokinetic study after oral administration of AGN root extract powder in healthy Korean subjects; type: in vivo, human; conditions: mean ± SE, n = 10; for CL/F / Vd/F: humans; for CL/F / Vd/F / AUC(0-inf) / Tmax / half-life: single usual oral dose of 4.6 g AGN root extract powder; for CL/F: dose of each coumarin / AUC0–∞; for Vd/F / Cmax / AUC(0-inf) / Tmax / half-life: male; for Vd/F: human, plasma; for Cmax / AUC(0-inf) / Tmax / half-life: human plasma; for Cmax: single usual oral dose of 4.6 g AGN root extract powder (0.055 mg D, 0.184 mg DA, 1.095 mg nodakenin)
Protocol: Ten healthy male subjects (Korean, 23–25 years, weight of 56.7–86.2 kg, and height of 159.8–188.0 cm) were included for this clinical trial. These subjects were in good health condition prior to this study based on a physical examination, medical history, and laboratory tests. Clinical trial protocol was approved by the Institutional Review Board of Wonkwang Oriental Medicine Hospital, Gwangju, Korea (https://cris.nih.go.kr, no. KCT0001118). This clinical trial was carried out in accordance with the revised Declaration of Helsinki for biomedical research involving human subjects and Guideline for Good Clinical Practice.
All subjects fasted for at least 10 h before drug administration. They continued the fasting for another 4 h. These subjects abstained from consuming alcohol or xanthine-containing foods, or beverages during the study. A usual oral dose of AGN root extract powder was given to each subject with 240 mL of spring water. The usual dose approved by the MFDS was of 4.6 g. It contained 0.055 mg of D, 0.184 mg of DA, and 1.095 mg of nodakenin. Blood samples were taken from the forearm vein before and at 0.25, 0.5, 0.75, 1, 2, 3, 4, 6, 8, 12, and 24 h after oral administration. Samples were transferred to Vacutainer® (10 mL, Becton Dickinson and Company, NJ, USA) tubes and immediately centrifuged (10,000× g, 10 min, 4 °C) to obtain plasma samples. Obtained plasma samples were transferred to polyethylene tubes and stored at −80 °C until analysis.
Plasma concentration–time data were analyzed with non-compartmental method using WinNonlin® software (version 7.0, Pharsight®, Certara™ Company, Princeton, NJ, USA) to obtain pharmacokinetic parameters. The area under the plasma concentration–time curve from zero to time infinity (AUC0–∞) was calculated as AUC0–t + Ct/k, where Ct is was the last measurable concentration. AUC0–t was calculated by linear trapezoidal rule from zero to the last measurable time point. Oral clearance (CL/F) was calculated as dose of each coumarin divided by AUC0–∞, where F was oral bioavailability. The t1/2 was calculated as 0.693/k, where k was terminal rate constant. All results are expressed as mean value ± standard error (mean ± SE, n = 10).

| t1/2 of published study relative to t1/2 of this study (times longer) [1] | Stability, Processed Sample (10 °C in Auto Sampler for 24 h) ([2]; nominal conc. 0.15 ng/mL) | Stability, Processed Sample (10 °C in Auto Sampler for 24 h) ([2]; nominal conc. 40 ng/mL) | Stability, Long-Term (−80 °C for 30 Days) ([2]; nominal conc. 0.15 ng/mL) | Stability, Bench-Top (8 h at Room Temperature) ([2]; nominal conc. 0.15 ng/mL) | Stability, Freeze-Thaw (3 Cycles) ([2]; nominal conc. 0.15 ng/mL) | Stability, Long-Term (−80 °C for 30 Days) ([2]; nominal conc. 40 ng/mL) | Stability, Bench-Top (8 h at Room Temperature) ([2]; nominal conc. 40 ng/mL) | Stability, Freeze-Thaw (3 Cycles) ([2]; nominal conc. 40 ng/mL) | Stability mean values (range over all storage conditions and concentrations) [2] | CL/F [3] [L/h] | Vd/F [3] [L] | Cmax [3] [ng/mL] | AUC(0-inf) [3] [ng·h/mL] | Tmax [3] [h] | half-life [3] [h] | SMILES |
| --- | --- | --- | --- | --- | --- | --- | --- | --- | --- | --- | --- | --- | --- | --- | --- | --- |
| about 5.84 times | 100.34 ± 9.38 | 108.94 ± 11.50 | 105.00 ± 9.02 | 101.91 ± 3.91 | 96.54 ± 10.95 | 102.26 ± 10.17 | 108.71 ± 14.16 | 102.80 ± 12.88 | 96.54–108.94 | 3.11 ± 0.42 | 11.9 ± 1.5 | 11.9 ± 1.43 | 22.3 ± 5.04 | 0.44 ± 0.05 | 3.03 ± 0.52 | CC(C)=CC(=O)O[C@H]1Cc2cc3ccc(=O)oc3cc2OC1(C)C [D, decursin] |
| ~3.7 times | 111.85 ± 12.49 | 103.88 ± 3.51 | 106.20 ± 9.09 | 108.58 ± 10.18 | 103.55 ± 8.34 | 99.35 ± 4.17 | 107.87 ± 4.07 | 100.75 ± 4.12 | 99.35–111.85 | 12.00 ± 1.97 | 60 ± 7.3 | 7.72 ± 0.84 | 19.6 ± 3.71 | 0.31 ± 0.04 | 4.04 ± 0.64 | C/C=C(/C)C(=O)O[C@H]1Cc2cc3ccc(=O)oc3cc2OC1(C)C [DA, decursinol angelate] |
| ~2.5 times | 102.43 ± 5.27 | 104.77 ± 2.48 | 87.35 ± 9.60 | 89.75 ± 11.39 | 92.06 ± 2.28 | 106.93 ± 11.89 | 101.81 ± 7.72 | 104.29 ± 9.30 | 87.35–106.93 | – | – | 0.92 ± 0.16 | 2.43 ± 0.45 | 0.64 ± 0.06 | 2.62 ± 0.5 | CC1(C)Oc2cc3oc(=O)ccc3cc2C[C@@H]1O [DOH, decursinol] |
| – | 107.70 ± 9.77 | 103.17 ± 10.19 | 111.62 ± 8.13 | 101.43 ± 7.53 | 103.49 ± 8.40 | 101.90 ± 9.83 | 107.91 ± 6.81 | 104.79 ± 12.76 | 101.43–111.62 | 622.29 ± 159.24 | 2800 ± 420 | 0.95 ± 0.17 | 3.11 ± 0.8 | 0.67 ± 0.04 | 6.28 ± 2.47 | CC(C)(O[C@@H]1O[C@H](CO)[C@@H](O)[C@H](O)[C@H]1O)[C@H]1Cc2cc3ccc(=O)oc3cc2O1 [Nodakenin, nodakenin] |
